These results are taken from patent US9409905B2, “Antibacterial compounds and methods for use” (PTC THERAPEUTICS, INC., priority 2011, dated 2016).

For assay [1], the system named is Escherichia coli (E. coli) BAS849. The assay can be described thus: Antibacterial activity, microbroth dilution MIC (Table 1). Type of assay: cell-based. To be noted: microbroth dilution, super sensitive Gram-negative E. coli BAS849, read-out: MIC, BAS849. In short, it runs like this:
(§1)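 Microbroth dilution was used. MIC, in μg/mL, is the lowest drug concentration preventing macroscopically visible growth under the test conditions.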
(In broth dilution the organism is exposed to a series of concentrations in liquid medium.)

For assay [2], the system named is Staphylococcus aureus (S. aureus) 29213. The description is as above. The format is cell-based. The settings on record: microbroth dilution, Gram-positive S. aureus 29213, read-out: MIC, 29213. Put shortly:
as §1

The test system of another assay is E. coli 25922. Described as above. The format is cell-based, Escherichia coli. To be noted: Escherichia coli; microbroth dilution; control Gram-negative E. coli 25922 strain; read-out: MIC, 25922. Put shortly:
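Broth microdilution against S. aureus 29213, E. coli 25922 and hypersensitive E. coli BAS849. MIC in μg/mL is the lowest drug concentration preventing macroscopically visible growth under test conditions.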

The subject of the next assay is E. coli LZ3111. The assay is described as follows: Antibacterial activity, MIC, quinolone resistant strain (Table 2). The settings on record: Escherichia coli, LZ3111, read-out: MIC LZ3111. The format is cell-based. In short, it runs like this: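 MIC values (μg/mL) came from a microbroth dilution assay, scored as the lowest drug concentration at which no growth was visible by eye.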

For the next assay, the system named is E. coli ELZ4000. The assay is described as follows: Antibacterial activity, MIC, multi-drug resistant clinical isolate (Table 3). Type of assay: cell-based. The settings on record: Escherichia coli, ELZ4000, read-out: MIC ELZ4000. Put shortly: (§2)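 Compounds were serially diluted in broth microdilution format and growth was scored visually; the MIC is the lowest concentration at which no macroscopically visible growth occurred, expressed in μg/mL.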

The test system of another assay is E. coli ELZ4251. The assay is described as above. Type of assay: cell-based. To be noted: Escherichia coli. Put shortly: as §2
The subject of assay [3] is Acinetobacter baumannii (A. baumannii) BAA747. The assay is described as follows: Antibacterial activity, MIC (Table 4). Type of assay: cell-based. The settings on record: A. baumannii BAA747, read-out: MIC, BAA747. In short, it runs like this:
(§3)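 The resistant panel comprises multi-drug resistant clinical isolates. All strains were tested by microbroth dilution, with the MIC in μg/mL taken as the lowest concentration that prevented macroscopically visible growth.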

Assay [4] concerns Klebsiella pneumoniae (K. pneumoniae) 35657. The assay is described as follows: Antibacterial activity, MIC (Table 4). Type of assay: cell-based. To be noted: K. pneumoniae 35657, read-out: MIC, 35657. In short, it runs like this: as §3
The subject of the next assay is A. baumannii MXX2240. The assay can be described thus: Antibacterial activity, MIC, resistant strain (Table 4). The format is cell-based. The settings on record: Acinetobacter baumannii, MXX2240; resistant A. baumannii MMX2240, multi-drug resistant clinical isolate; read-out: MIC, MMX2240. In short, it runs like this:
as §3

The next assay deals with K. pneumoniae MXX1232. Described as above. Type of assay: cell-based. The settings on record: Klebsiella pneumoniae, MXX1232; resistant K. pneumoniae MMX1232, multi-drug resistant clinical isolate; read-out: MIC, MMX1232. In short, it runs like this:
as §3

Assay [5] relates to Pseudomonas aeruginosa (P. aeruginosa) 27853. The assay can be described thus: Antibacterial activity, MIC (Table 5). Type of assay: cell-based. To be noted: P. aeruginosa 27853, read-out: MIC, 27853. Put shortly: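 Values are MICs in μg/mL, read as the lowest concentration at which no growth is visible by eye. They were determined by a microbroth dilution method.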
The subject of assay [6] is Haemophilus influenzae (H. influenzae) 49247. The assay can be described thus: Antibacterial activity, MIC (Table 6). The format is cell-based. The source says:
(§4) The antibacterial activity from a microbroth dilution method may be presented as the minimum inhibitory concentration (MIC in μg/mL). The MIC value is the lowest concentration of drug which prevents macroscopically visible growth under test conditions.
(§5) Antibacterial activity of test compounds against the Gram-negative bacteria Haemophilus influenzae (H. influenzae) 49247 is shown in Table 6, Moraxella catarrhalis (M. catarrhalis) 25238 is shown in Table 7 and Neisseria meningitidis (N. meningitidis) 13090 is shown in Table 8.

The subject of assay [7] is Moraxella catarrhalis (M. catarrhalis) 25238. The assay can be described thus: Antibacterial activity, MIC (Table 7). Type of assay: cell-based.
From the text: as §4, §5

The test system of assay [8] is Neisseria meningitidis (N. meningitidis) 13090. The assay is described as follows: Antibacterial activity, MIC (Table 8). Type of assay: cell-based. In short, it runs like this: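 Activity was determined by microbroth dilution. MIC, in μg/mL, is the lowest drug concentration that prevents macroscopically visible growth under the test conditions.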

Molecules are shown by their SMILES. Converted amounts (≈) assume the structure as drawn.

For the compound `CCc1c(-c2cnc3c(ccn3C)c2)[nH]c(=O)c(C(=O)O)c1O` [Cpd 32, 5-ethyl-4-hydroxy-6-(1-methyl-1H-pyrrolo[2,3-b]pyridin-5-yl)-2-oxo-1,2-dihydropyridine-3-carboxylic acid], the MIC in assay [1] was less than 1 µg/mL; in assay [2], 3.5 to 12.5 µg/mL (≈ 11.2 to 39.9 µM); in the assay on E. coli 25922, 12.5 to 150 µg/mL (≈ 39.9 to 479 µM); with E. coli LZ3111, 1 to 3.5 µg/mL (≈ 3.19 to 11.2 µM); with E. coli ELZ4000, 1 to 3.5 µg/mL (≈ 3.19 to 11.2 µM); in the assay with E. coli ELZ4251 it was less than 1 µg/mL. In addition, the MIC in [3] was 12.5 to 150 µg/mL (≈ 39.9 to 479 µM); in assay [4], 12.5 to 150 µg/mL (≈ 39.9 to 479 µM); in the assay on A. baumannii MXX2240, less than 1 µg/mL; with K. pneumoniae MXX1232 it was 12.5 to 150 µg/mL (≈ 39.9 to 479 µM); in assay [5] it was 12.5 to 150 µg/mL (≈ 39.9 to 479 µM); in assay [6], 1 to 3.5 µg/mL (≈ 3.19 to 11.2 µM). The results for the MIC in assay [7] and in [8] were 1 to 3.5 µg/mL (≈ 3.19 to 11.2 µM) and less than 1 µg/mL, respectively.

For `Cn1ccc2cc(-c3[nH]c(=O)c(C(=O)O)c(O)c3C3CC3)ccc21` [Cpd 36, 5-cyclopropyl-4-hydroxy-6-(1-methyl-1H-indol-5-yl)-2-oxo-1,2-dihydropyridine-3-carboxylic acid], the MIC in assay [1] lay in the range of 1 to 3.5 µg/mL (≈ 3.08 to 10.8 µM); in assay [2], 3.5 to 12.5 µg/mL (≈ 10.8 to 38.5 µM); in the assay with E. coli 25922, 12.5 to 150 µg/mL (≈ 38.5 to 462 µM); with E. coli LZ3111, 3.5 to 12.5 µg/mL (≈ 10.8 to 38.5 µM); with E. coli ELZ4000 it was 3.5 to 12.5 µg/mL (≈ 10.8 to 38.5 µM); in the assay with E. coli ELZ4251 it was 1 to 3.5 µg/mL (≈ 3.08 to 10.8 µM). Besides, the MIC in assay [3] was 12.5 to 150 µg/mL (≈ 38.5 to 462 µM); in [4], 12.5 to 150 µg/mL (≈ 38.5 to 462 µM); with A. baumannii MXX2240 it was 1 to 3.5 µg/mL (≈ 3.08 to 10.8 µM); in the assay with K. pneumoniae MXX1232 it was 12.5 to 150 µg/mL (≈ 38.5 to 462 µM); in [5] it was 12.5 to 150 µg/mL (≈ 38.5 to 462 µM); in [6] it was 3.5 to 12.5 µg/mL (≈ 10.8 to 38.5 µM). Further, the MIC in [7] was 1 to 3.5 µg/mL (≈ 3.08 to 10.8 µM); in assay [8], less than 1 µg/mL.

With `CCc1c(-c2ccc3c(c2)cc(CO)n3C)[nH]c(=O)c(C(=O)O)c1O` [Cpd 40, 5-ethyl-4-hydroxy-6-(2-(hydroxymethyl)-1-methyl-1H-indol-5-yl)-2-oxo-1,2-dihydropyridine-3-carboxylic acid], the MIC in assay [1] was less than 1 µg/mL; in assay [2], 1 to 3.5 µg/mL (≈ 2.92 to 10.2 µM); with E. coli 25922, 1 to 3.5 µg/mL (≈ 2.92 to 10.2 µM); with E. coli LZ3111, 3.5 to 12.5 µg/mL (≈ 10.2 to 36.5 µM); in the assay on E. coli ELZ4000 it was 12.5 to 150 µg/mL (≈ 36.5 to 438 µM); in the assay with E. coli ELZ4251 it was 3.5 to 12.5 µg/mL (≈ 10.2 to 36.5 µM). In addition, the MIC in [3] is 1 to 3.5 µg/mL (≈ 2.92 to 10.2 µM); in the assay on A. baumannii MXX2240, 3.5 to 12.5 µg/mL (≈ 10.2 to 36.5 µM); with K. pneumoniae MXX1232 it was 12.5 to 150 µg/mL (≈ 36.5 to 438 µM); in assay [5] it was 3.5 to 12.5 µg/mL (≈ 10.2 to 36.5 µM); in assay [6], less than 1 µg/mL; in [8] it was less than 1 µg/mL.

As for `CCc1cc(C(=O)O)c(=O)[nH]c1-c1ccc2c(cnn2C)c1` [Cpd 41, 5-ethyl-6-(1-methyl-1H-indazol-5-yl)-2-oxo-1,2-dihydropyridine-3-carboxylic acid], the MIC in assay [1] is less than 1 µg/mL; in [2], 12.5 to 150 µg/mL (≈ 42 to 505 µM); in the assay on E. coli 25922, 3.5 to 12.5 µg/mL (≈ 11.8 to 42 µM); in the assay with E. coli LZ3111, 12.5 to 150 µg/mL (≈ 42 to 505 µM); with E. coli ELZ4000, 12.5 to 150 µg/mL (≈ 42 to 505 µM); with E. coli ELZ4251, 12.5 to 150 µg/mL (≈ 42 to 505 µM). Further, the MIC was 12.5 to 150 µg/mL (≈ 42 to 505 µM) in assay [3]; 12.5 to 150 µg/mL (≈ 42 to 505 µM) in [4]; 12.5 to 150 µg/mL (≈ 42 to 505 µM) in the assay on A. baumannii MXX2240; 12.5 to 150 µg/mL (≈ 42 to 505 µM) with K. pneumoniae MXX1232; 12.5 to 150 µg/mL (≈ 42 to 505 µM) in assay [5]; less than 1 µg/mL in assay [6]. The compound also registered an MIC in assay [8] of less than 1 µg/mL.

Take `CCc1c(-c2ccc3c(c2)cc(CNC)n3C)[nH]c(=O)c(C(=O)O)c1O` [Cpd 203, 5-ethyl-4-hydroxy-6-(1-methyl-2-((methylamino)methyl)-1H-indol-5-yl)-2-oxo-1,2-dihydropyridine-3-carboxylic acid]: the MIC is less than 1 µg/mL in [1]; 3.5 to 12.5 µg/mL (≈ 9.85 to 35.2 µM) in assay [2]; less than 1 µg/mL with E. coli 25922; 1 to 3.5 µg/mL (≈ 2.81 to 9.85 µM) in the assay with E. coli LZ3111; 3.5 to 12.5 µg/mL (≈ 9.85 to 35.2 µM) in the assay with E. coli ELZ4000; 1 to 3.5 µg/mL (≈ 2.81 to 9.85 µM) in the assay with E. coli ELZ4251. The MIC was less than 1 µg/mL in [3]; 3.5 to 12.5 µg/mL (≈ 9.85 to 35.2 µM) with A. baumannii MXX2240; 12.5 to 150 µg/mL (≈ 35.2 to 422 µM) in the assay on K. pneumoniae MXX1232; 1 to 3.5 µg/mL (≈ 2.81 to 9.85 µM) in assay [5]; less than 1 µg/mL in assay [6]; less than 1 µg/mL in assay [7]. This compound also returned an MIC in assay [8] of less than 1 µg/mL.

As for `C=CCNCc1cc2cc(-c3[nH]c(=O)c(C(=O)O)c(O)c3CC)ccc2n1C.Cl` [Cpd 243, 6-(2-((allylamino)methyl)-1-methyl-1H-indol-5-yl)-5-ethyl-4-hydroxy-2-oxo-1,2-dihydropyridine-3-carboxylic acid hydrochloride], the MIC in assay [1] was less than 1 µg/mL; in assay [2] it was 3.5 to 12.5 µg/mL; with E. coli 25922, less than 1 µg/mL; with E. coli LZ3111, 1 to 3.5 µg/mL; in the assay with E. coli ELZ4000 it was 3.5 to 12.5 µg/mL; in the assay on E. coli ELZ4251, 1 to 3.5 µg/mL. Besides, the MIC in [3] was less than 1 µg/mL; in [4], less than 1 µg/mL; in the assay with K. pneumoniae MXX1232, 12.5 to 150 µg/mL; in assay [5], 3.5 to 12.5 µg/mL; in [6] it was less than 1 µg/mL; in [7], less than 1 µg/mL. The compound further displayed an MIC in assay [8] of less than 1 µg/mL.
